Laboratory results published in patent publication US5693668A, “Acetylcholinesterase inhibitors” (priority 1989, dated 1997).
Where two headings read alike, the source gives them in different places.

Assays:
[1] = In vivo transdermal delivery of MDL 73,745 from prototype patch in Beagle dogs; set-up: species or system Beagle dog
Procedure: (§1) Transdermal Bioavailability of MDL 73,745 from a prototype transdermal delivery system in Beagle Dogs
(§2) A `lead` prototype formulation was then evaluted in an in vivo dog model. […] The rate of in vivo transdermal delivery in the dog was calculated to be 7.7 μg/cm^2 /hr.
Three male Beagle dogs were studied. Animals were fasted 12 h before drug administration but had free access to drinking water. The following single doses of [^14 C]-MDL 73,745 were administered: intravenous (iv): 1 and 2 mg/kg; oral (po): 10 mg/kg; subcutaneous (sc): 10 mg/kg. There was a two week wash-out period between each administration. Drug was administered as a suspension in 0.5% methyl cellulose.
From the equation: S.ko=Cl.Css
S=area (cm^2) of the patch
Css =steady-state concentration (ng/ml)
ko-rate of release from the delivery system per unit surface area can be calculated: […]

[2] = Aqueous solubility of MDL 73,745 in Trycol medium; type: physicochemical; conditions: in presence of Trycol (polyethylene glycol 20 Oleyl ether), 5% in 0.9% sodium chloride
Procedure: (§3) Dermal elution media: A 5% solution of polyethylene glycol 20 Oleyl ether (Trycol®, Emery) in 0.9% sodium chloride was used as the receptor medium for the modified Franz Diffusion Cells. […] Temperature of the dermal elution media was maintained at 37° C. using a thermostated constant temperature circulating water bath.

plasma cholineesterase = experiment: Inhibition of plasma cholinesterase activity during patch application in dogs; type: in vivo, Beagle dog; conditions: `lead` prototype patch, throughout patch application (96 hours)
Procedure: as §1, §2

[3] = type: in vitro ADME, hairless mouse (Outbred Nude mouse); conditions: for skin permeation rate: 50% w/w drug loading
Procedure: An in vitro excised hairless mouse skin/modified Franz Diffusion Cell model was used to evaluate skin permeability of neat MDL 73,745, the title compound of Example 1, and permeation profile of MDL 73,745 from various prototype transdermal delivery systems. Prototype transdermal delivery systems containing MDL 73,745 were prepared in various acrylic, silastic, ethylene vinyl acetate copolymer, and rubber based pressure sensitive adhesives and evaluated in the in vitro skin permeation cell model.
In vitro skin permeation model: For this study an in vitro finite-dose glass diffusion cell (modified Franz Diffusion Cell)/freshly excised hairless mouse skin model was used. The diffusion consists of two parts: (i) a receptor compartment which is an upright reservoir jacketed by a glass chamber on the outside. Experiments were conducted at 37° C. by circulating thermostatically controlled water at 37° C. in this jacket and (ii) donor cap, which is clamped together with the receptor compartment with a metal clamp. A piece of skin/(transdermal formulation) is sandwiched between the donor and the receptor compartments and clamped together. Sampling from the receptor compartment is taken at predetermined time intervals through the sampling port.
Hairless mouse: Outbred Nude mouse {CRL NU/NU (CD1) BR, 6-8 weeks old, male} from Charles River, Mass.
Excised skin: Immediately following sacrifice by CO2 gas, a portion (3.5×3.5 cm) of the full-thickness abdominal skin was carefully excised from the hairless mouse. The dermal side of the skin was carefully cleaned of any adhering subcutaneous tissue and/or blood vessels. Extreme care was taken not to scratch or damage the stratum corneum. Before mounting onto the diffusion cell, each piece of skin was carefully inspected to insure that the skin was not damaged.
as §3
Skin permeation profile from neat MDL 73,745 and from Prototype formulations: Full-thickness skin, prepared freshly as outlined above, was mounted in a modified Franz Diffusion Cell with the stratum corneum side facing upward. To study the permeation profile of neat MDL 73,745, 50 μl of MDL 73,745 was uniformly applied onto the stratum corneum. The donor cap was placed over the skin and the whole assembly was then securely clamped together. The donor cap was covered with a piece of aluminum foil to reduce the volatilization of MDL 73,745. To evaluate the skin permeation profile of MDL 73,745 from a prototype transdermal formulation, a unit of prototype transdermal system (about 4.9 cm^2 circular) containing MDL 73,745 was placed onto the skin with the drug releasing side in intimate contact with the stratum corneum (slight pressure was applied to insure good contact). The donor cap was placed over the skin and the whole assembly was then securely clamped together.
Dermal elution medium (5% w/w Trycol® in normal saline) was then introduced into the receptor compartment through the sampling port. At predetermined time intervals, the entire volume of the receptor solution was withdrawn and immediately replaced with the same volume of fresh, drug free dermal elution medium (5% w/w Trycol® in normal saline), maintained at 37° C. The concentration of MDL 73,745 was determined by a sensitive HPLC method described under Analytical Method section below.
Analytical Method: An automated high performance liquid chromatograph equipped with a gradient pump (Waters Model 600E), autoinjector/sampler (Waters, Model 715 WISP), and a variable wavelength UV detector (Waters, Model 490) was used. The autoinjector/sampler was maintained at 2° C. to reduce possible evaporation/degradation of MDL 73,745 in the sample. […]

## C[Si](C)(C)c1cccc(C(=O)C(F)(F)F)c1 [MDL 73,745, 2,2,2-Trifluoro-1-(3-trimethylsilylphenyl) ethanone]
[1]; `lead` prototype patch, dog, calculated
  rate of in vivo transdermal delivery: 7.7 μg/cm^2 /hr
[1]; `lead` prototype patch, throughout patch application (96 hours)
  plasma level: constant, steady state plasma level
[1]; patch 70% w/w MDL 73,745 in DuroTak 80-1074, 5 mg/cm^2, same for both doses, from S.ko=Cl.Css
  ko, rate of release from the delivery system per unit surface area: 7.7 μg/hr/cm^2
[2]
  aqueous solubility: increases the aqueous solubility
Plasma cholineesterase
  inhibition of plasma cholineesterase activity: inhibition of plasma cholineesterase activity was achieved
[3]; 3M acrylic adhesive #9871, 50% w/w drug loading
  rate of transdermal delivery: 13.01 μg/cm^2 /hr
[3]; 3M acrylic adhesive #9871, 60% w/w drug loading
  rate of transdermal delivery: 21.04 μg/cm^2 /hr
[3]; 3M acrylic adhesive #9871 prototypes
  transdermal delivery profile: constant, zero-order profile
[3]; prototype in Gelva 737
  skin permeation rate: 12.95 μg/cm^2 /hr
[3]; prototype in Gelva 788
  skin permeation rate: 8.63 μg/cm^2 /hr
[3]; DuroTak 72-9718 rubber based PSA prototypes
  skin permeation profile: constant, zero-order profile
[3]; DuroTak 72-9718 rubber based PSA, 20% w/w drug loading
  rate of transdermal delivery: 12.92 μg/cm^2 /hr
[3]; Eva-Tak 72-9660 prototype containing 50% drug
  rate of transdermal delivery: 33.86 μg/cm^2 /hr
[3]; Eva-Tak 72-9660 prototype containing 60% drug
  rate of transdermal delivery: 20.59 μg/cm^2 /hr
[3]; Eva-Tak 72-9660 prototypes, throughout duration of patch application
  transdermal delivery profile: controlled, zero-order fashion
[3]; Nacor 38-4515 prototype containing 50% w/w drug
  rate of transdermal delivery: 19.18 μg/cm^2 /hr
[3]; neat MDL 73,745
  transport profile through skin: controlled zero order fashion
[3]; neat MDL 73,745, 50 μl on stratum corneum
  rate of transdermal delivery: 208.21 μg/cm^2 /hr
[3]; prototypes in various acrylic PSA
  period of controlled, zero-order transdermal delivery: at least 24 hours
